Assay results as given in PMC6271085, “Synthesis and Cytotoxic Evaluation of a Series of 2-Amino-Naphthoquinones against Human Cancer Cells” (Molecules, 2014).
Values after ≈ are worked out from the molar mass of the structure shown. Values joined by “and” are separate entries in the source; they are usually repeats but may differ in a detail not shown here. Identical values can stand only once. Like-named read-outs stand apart in the source and are kept apart here.

How the values were obtained:
[1] = system: HCT-8 (colon) cells; assay: MTT cytotoxicity assay, HCT-8; assay type: cell-based; details: Homo sapiens; for IC50: HCT-8, 72 h, HCT-8, 72h exposure; for inhibition at 5 µg/mL: HCT-8, 5 µg/mL, 72 h, MTT, read-out: Percentage of inhibition of cell growth (GI%), average
Text: (§1) This experiment evaluated the cytotoxicity of aminonaphthoquinones (ANPQs) against human cancer cells, in vitro. This analysis is part of an initial screening for determination of the potential antitumor of these samples. The human cancer cell strains used were SF-295 (glioblastoma-human), MDAMB-435 (melanoma), HCT-8 (colon), HCT-116 (colon), HL-60 (leukemia), OVCAR-8 (ovarian cancer), NCI-H358M (human bronchoalveolar lung carcinoma) and PC3-M (highly metastatic prostate cancer cell line). All cancer cells were provided by the National Cancer Institute (Rockville, MD, USA) and were cultured in RPMI 1640 supplemented with 10% fetal bovine serum and 1% antibiotics, maintained at 37 °C and atmosphere containing 5% CO2. The peripheral blood mononuclear cells (PBMC) were isolated by gradient of density (Ficoll-Hypaque) and cultivated in RPMI 1640 medium, supplemented with bovine foetal serum (20%), antibiotic (1%) and phytohemagglutinin (4%). The cells were maintained at 37 °C and atmosphere containing 5% CO2.
(§2) The different samples of ANPQs were diluted in pure sterile DMSO. The substances were tested at a concentration of 5 µg·mL^−1. In order to determine the IC50 the substances were tested at increasing concentrations in serial dilutions (5–0.010 µg·mL^−1).
(§3) Analysis of cytotoxicity by the MTT method has been used in the screening program at the National Cancer Institute of the United States (NCI), which tests over 10,000 samples per year. It is a rapid, sensitive and inexpensive test. It was first described by Mosman as having the ability to analyze the viability and the metabolic state of cells. It is a colorimetric analysis based on conversion of the salt 3-(4,5-dimethyl-2-thiazole)-2,5-diphenyl-2H-tetrazolium bromide (MTT) to formazan-blue by the mitochondrial enzymes found only in metabolically active cells. The study of the cytotoxicity by MTT method allows easily defining the cytotoxicity but not the mechanism of action.
(§4) The cells were plated at a concentration of 0.1 × 10^6 cell mL^−1 to OVCAR-8, NCI-H358M, PC3-M, SF-295 and MDA-MB435 strains, 0.7 × 10^5 cell mL^−1 to HCT-8 and HCT-116 strains, 0.3 × 10^6 to HL-60 strain, 1.0 × 10^6 cell mL^−1 to PBMC. The plates were incubated for 72 h at 5% CO2 at 37 °C. After, they were centrifuged and the supernatant removed. Then the solution of MTT (tetrazolium salt, 150 µL) was added, and the plates were incubated for 3 h. The absorbance was read after dissolving the precipitate with 150 µL of pure DMSO in a spectrophotometer plate at 595 nm.

[2] = system: MDAMB-435 cells; assay: MTT cytotoxicity assay, MDAMB-435; assay type: cell-based; details: Homo sapiens; for IC50: MDA-MB-435, 72 h, MDAMB-435, 72h exposure; for inhibition at 5 µg/mL: MDA-MB-435, MDAMB-435, 5 µg/mL, 72 h, MTT, read-out: Percentage of inhibition of cell growth (GI%), average
Text: as §1, §2, §3, §4

[3] = system: SF-295 (glioblastoma) cells; assay: MTT cytotoxicity assay, SF-295; assay type: cell-based; details: Homo sapiens; for IC50: SF-295, 72 h, SF-295, 72h exposure; for inhibition at 5 µg/mL: SF-295, 5 µg/mL, 72 h, MTT, read-out: Percentage of inhibition of cell growth (GI%), average
Text: as §1, §2, §3, §4

[4] = system: HL-60 (leukemia) cells; assay: MTT cytotoxicity assay, HL-60; assay type: cell-based; details: Homo sapiens; HL-60, 72h exposure
Text: as §1, §2, §3, §4

[5] = system: HCT-116 (colon) cells; assay: MTT cytotoxicity assay, HCT-116; assay type: cell-based; details: Homo sapiens; HCT-116, 72h exposure
Text: as §1, §2, §3, §4

[6] = system: OVCAR-8 (ovarian cancer) cells; assay: MTT cytotoxicity assay, OVCAR-8; assay type: cell-based; details: Homo sapiens; OVCAR-8, 72h exposure
Text: as §1, §2, §3, §4

[7] = system: NCI-H358M (bronchoalveolar lung carcinoma) cells; assay: MTT cytotoxicity assay, NCI-H358M; assay type: cell-based; details: Homo sapiens, 72h exposure
Text: as §1, §2, §3, §4

[8] = system: PC3-M (prostate) cells; assay: MTT cytotoxicity assay, PC3-M; assay type: cell-based; details: Homo sapiens, PC-3M, 72 h, 72h exposure
Text: as §1, §2, §3, §4

[9] = MTT cytotoxicity assay, PBMC; assay type: cell-based; details: peripheral blood mononuclear cells (PBMC); PBMC normal cells, 72h exposure
Text: as §1, §2, §3, §4

[10] = system: HCT-8 (colon) cells; set-up: method as in PMID 16042338; details: cited from earlier work
[11] = system: HL-60 (leukemia) cells; set-up: method as in PMID 16042338; details: cited from earlier work

With `COc1cccc2c1C(=O)c1c(O)c3c(c(O)c1C2=O)C[C@@](O)(C(=O)CO)C[C@@H]3O[C@H]1C[C@H](N)[C@H](O)[C@H](C)O1` [Dox, Doxorubicin, reference compound] the IC50 [1] was 0.07 µg/mL and 130 nM, the IC50 [2] was 0.48 µg/mL and 830 nM and the IC50 [3] was 0.23 µg/mL. The IC50 [4] was 0.02 µg/mL and 30 nM, the IC50 [5] was 0.01 µg/mL and 20 nM and the IC50 [6] was 0.26 µg/mL (≈ 0.478 µM). For the same molecule, the IC50 [7] was 0.9 µg/mL and 1.65 µM, the IC50 [8] was 0.2 µg/mL and 360 nM and the IC50 at 72 h [9] was 0.23 µg/mL and 420 nM.
In the case of `Cc1cc(=O)c2c(O)c([C@@H]3O[C@H](CO)[C@@H](O)[C@H](O)[C@H]3O)c(O)cc2o1` [biflorin], the IC50 [10] is given as 0.88 µg/mL (≈ 2.48 µM) and the IC50 [11] is given as 1950 nM.
In the case of `O=C(O)CNC1=CC(=O)c2ccccc2C1=O` [compound 2, 2N-(1,4-Dioxo-1,4-dihydronaphthalen-2-yl)acetic acid], the IC50 [1] is reported as 0.89 µg/mL and 3.84 µM, the inhibition at 5 µg/mL [1] is reported as 81.7% and the IC50 [2] is reported as 1.21 µg/mL and 5.23 µM. For the same molecule, the inhibition at 5 µg/mL [2] was 100%, the IC50 [3] was 0.57 µg/mL and 2.46 µM and the inhibition at 5 µg/mL [3] was 81.1%. For the same molecule, the IC50 [4] was 0.7 µg/mL and 3.02 µM, the IC50 [5] was 1.31 µg/mL and 5.66 µM and the IC50 [6] was 3.89 µg/mL and 16.8 µM. The IC50 [7] was > 5 µg/mL and > 21.6 µM, the IC50 [8] was > 5 µg/mL and > 21.6 µM and the IC50 at 72 h [9] was 5.51 µg/mL and 23.8 µM.
Work on `O=C(O)CCNC1=CC(=O)c2ccccc2C1=O` [compound 3, 3N-(1,4-Dioxo-1,4-dihydronaphthalen-2-yl)propanoic acid] yielded an inhibition at 5 µg/mL [1] of 56%, an inhibition at 5 µg/mL [2] of 26.4% and an inhibition at 5 µg/mL [3] of 56%. The melting point was 198 to 200 °C.
Work on `O=C1C=C(N2CCC[C@H]2C(=O)O)C(=O)c2ccccc21` [compound 4, N-(1,4-Dioxo-1,4-dihydronaphthalen-2-yl)-L-proline] yielded an inhibition at 5 µg/mL [1] of 59.1%, an inhibition at 5 µg/mL [2] of 36.7% and an inhibition at 5 µg/mL [3] of 59.3%. The melting point was 164 to 167 °C (dec.).
`C[C@H](NC1=CC(=O)c2ccccc2C1=O)C(=O)O` [compound 5, N-(1,4-Dioxo-1,4-dihydronaphthalen-2-yl)-L-alanine] gave an IC50 [1] of 3380 nM, an inhibition at 5 µg/mL [1] of 84.1% and an IC50 [2] of 1990 nM. It also gave an inhibition at 5 µg/mL [2] of 100%, an IC50 [3] of 2560 nM and an inhibition at 5 µg/mL [3] of 83.8%. For the same molecule, the IC50 [4] was 1.05 µg/mL and 4.27 µM, the IC50 [5] was 1.11 µg/mL and 4.52 µM and the IC50 [6] was 2.36 µg/mL and 9.61 µM. For the same molecule, the IC50 [7] was 0.9 µg/mL and 3.36 µM, the IC50 [8] was 1.61 µg/mL (≈ 6.57 µM) and the IC50 at 72 h [9] was 7.34 µg/mL and 29.9 µM.
With `O=C1C=C(N[C@@H](Cc2ccccc2)C(=O)O)C(=O)c2ccccc21` [compound 6, N-(1,4-Dioxo-1,4-dihydronaphthalen-2-yl)-L-phenylalanine] the IC50 [1] was 1.59 µg/mL and 4.94 µM, the inhibition at 5 µg/mL [1] was 86.1% and the IC50 [2] was 1.46 µg/mL and 4.53 µM. The inhibition at 5 µg/mL [2] was 100%, the IC50 [3] was 0.65 µg/mL and 2.01 µM and the inhibition at 5 µg/mL [3] was 86.1%. The IC50 [4] was 1.31 µg/mL and 4.07 µM, the IC50 [5] was 2.15 µg/mL and 6.67 µM and the IC50 [6] was 1.87 µg/mL and 5.81 µM. For the same molecule, the IC50 [7] was 0.82 µg/mL and 2.54 µM, the IC50 [8] was 1.7 µg/mL and 5.28 µM and the IC50 at 72 h [9] was 12.2 µg/mL and 37.8 µM.
With `CCOC(=O)CNC1=CC(=O)c2ccccc2C1=O` [compound 7, Ethyl 2N-(1,4-dioxo-1,4-dihydronaphthalen-2-yl)acetate] the IC50 [1] was 1.84 µg/mL and 7.09 µM, the inhibition at 5 µg/mL [1] was 99.5% and the IC50 [2] was 1.33 µg/mL and 5.12 µM. For the same molecule, the inhibition at 5 µg/mL [2] was 100%, the IC50 [3] was 0.83 µg/mL and 3.19 µM and the inhibition at 5 µg/mL [3] was 99.5%. For the same molecule, the IC50 [4] was 1.24 µg/mL and 4.77 µM, the IC50 [5] was 2.13 µg/mL and 8.2 µM and the IC50 [6] was 2 µg/mL and 7.7 µM. The IC50 [7] was 0.64 µg/mL and 2.46 µM, the IC50 [8] was 1.63 µg/mL and 6.28 µM and the IC50 at 72 h [9] was 9 µg/mL and 34.7 µM. For the same molecule, the melting point was 93 to 95 °C.
With `CCOC(=O)CCNC1=CC(=O)c2ccccc2C1=O` [compound 8, Ethyl 3N-(1,4-dioxo-1,4-dihydronaphthalen-2-yl)propanoate] the inhibition at 5 µg/mL [1] was 28.2%, the inhibition at 5 µg/mL [2] was 11.7% and the inhibition at 5 µg/mL [3] was 32.7%. The melting point was 120 to 122 °C.
For `CCOC(=O)[C@H](C)NC1=CC(=O)c2ccccc2C1=O` [compound 9, Ethyl [(S) 2-(1,4-dioxo-1,4-dihydronaphthalen-2-ylamino)] propanoate], the IC50 [1] was 1.33 µg/mL and 4.86 µM, the inhibition at 5 µg/mL [1] was 75.4% and the IC50 [2] was 1.18 µg/mL and 4.31 µM. The inhibition at 5 µg/mL [2] was 100%, the IC50 [3] was 1.68 µg/mL and 6.13 µM and the inhibition at 5 µg/mL [3] was 75.1%. For the same molecule, the IC50 [4] was 1.74 µg/mL and 6.35 µM, the IC50 [5] was 3.11 µg/mL and 11.4 µM and the IC50 [6] was 1.88 µg/mL and 6.87 µM. The IC50 [7] was 0.98 µg/mL and 3.58 µM, the IC50 [8] was 2.62 µg/mL and 9.57 µM and the IC50 at 72 h [9] was 17.6 µg/mL and 64.3 µM. It also gave a melting point of 65 to 68 °C.
Work on `CCOC(=O)CCCNC1=CC(=O)c2ccccc2C1=O` [compound 10, Ethyl 4-(1,4-dioxo-1,4-dihydronaphthalen-2-ylamino)butanoate] yielded an inhibition at 5 µg/mL [1] of 49.6%, an inhibition at 5 µg/mL [2] of 59.1% and an inhibition at 5 µg/mL [3] of 49.2%.
Work on `O=C(O)CCCNC1=CC(=O)c2ccccc2C1=O` [compound 11, 4-(1,4-Dioxo-1,4-dihydronaphthalen-2-ylamino)butanoic acid] yielded an inhibition at 5 µg/mL [1] of 61.4%, an inhibition at 5 µg/mL [2] of 11.1% and an inhibition at 5 µg/mL [3] of 61.2%.
